Experimental data as given in patent US20230203098A1, “HUMAN TRANSFERRIN RECEPTOR BINDING PEPTIDE” (priority 2020, published 2023).
Where two headings read alike, the source gives them in different places. Where a SMILES comes first, the peptide text is derived from it. Bridges are numbered along the chain shown (N, C = ends). [ ]: non-standard residue; d: D form. NMePhe(3-Cl) = CN[C@@H](Cc1cccc(Cl)c1)C(=O)O; NMeW = CN[C@@H](Cc1c[nH]c2ccccc12)C(=O)O; Lys(N3) = [N-]=[N+]=NCCCC[C@H](N)C(=O)O; NMeY = CN[C@@H](Cc1ccc(O)cc1)C(=O)O; Sar = CNCC(=O)O

Molecular target: transferrin receptor (hTfR) (Homo sapiens, UniProt P02786)
Sequence (P02786 whole entry): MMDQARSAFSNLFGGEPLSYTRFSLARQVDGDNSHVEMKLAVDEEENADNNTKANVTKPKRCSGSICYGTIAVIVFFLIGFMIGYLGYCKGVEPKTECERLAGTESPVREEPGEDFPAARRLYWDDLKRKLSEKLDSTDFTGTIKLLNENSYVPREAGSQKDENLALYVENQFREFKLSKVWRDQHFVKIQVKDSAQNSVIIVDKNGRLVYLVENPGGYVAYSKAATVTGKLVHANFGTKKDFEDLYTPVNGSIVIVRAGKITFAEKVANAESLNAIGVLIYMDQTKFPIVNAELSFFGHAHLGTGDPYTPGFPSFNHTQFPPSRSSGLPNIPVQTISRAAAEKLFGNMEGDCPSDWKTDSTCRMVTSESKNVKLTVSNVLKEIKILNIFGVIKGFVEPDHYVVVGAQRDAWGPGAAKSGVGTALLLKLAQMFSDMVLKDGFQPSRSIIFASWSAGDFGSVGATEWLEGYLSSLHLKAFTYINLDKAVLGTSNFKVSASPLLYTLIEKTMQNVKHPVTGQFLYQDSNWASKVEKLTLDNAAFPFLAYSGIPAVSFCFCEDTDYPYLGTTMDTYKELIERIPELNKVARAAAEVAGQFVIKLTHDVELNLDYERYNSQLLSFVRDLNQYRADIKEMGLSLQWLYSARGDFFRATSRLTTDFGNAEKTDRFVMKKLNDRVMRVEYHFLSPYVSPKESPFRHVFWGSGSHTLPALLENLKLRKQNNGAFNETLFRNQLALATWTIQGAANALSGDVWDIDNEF
Assay: Intermolecular interaction evaluation test between transferrin receptor (hTfR) and peptide by surface plasmon resonance (SPR)
Type: binding
Summary of the method: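 Receptor was Ni-captured and EDC/NHS-fixed on an NTA chip; running buffer HEPES pH 8.0 with NaCl, Tween 20, BSA and 1.0% DMSO.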

[1] = surface plasmon resonance, hTfR, read-out: KD value for hTfR by SPR (class symbol)

Compound | Kd [nM] | Kd [1] [nM]
CC[C@H](C)[C@@H]1NC(=O)[C@H](Cc2ccc(OC)cc2)NC(=O)[C@H](Cc2ccc(O)cc2)NC(=O)[C@H](CC(N)=O)NC(=O)[C@H](Cc2c[nH]c3ccccc23)N(C)C(=O)[C@H](C(C)C)NC(=O)[C@H](Cc2cccc(Cl)c2)N(C)C(=O)[C@H](C(C)C)NC(=O)[C@H](C)NC(=O)CSC[C@@H](C(=O)N(C)CC(=O)N(C)CC(=O)N(C)CC(N)=O)NC(=O)[C@H](Cc2ccc(O)cc2)N(C)C(=O)[C@H](Cc2ccccc2)NC(=O)[C@@H](CCCNC(=N)N)NC(=O)[C@H](CCCNC(=N)N)NC(=O)[C@H]([C@@H](C)CC)NC1=O [compound 399] ({CH2CO}-AV[NMePhe(3-Cl)]V[NMeW]NYY(Me)IIR[dR]F[NMeY]C[Sar][Sar][Sar]-NH2; thioether N-15) | 1 to 100 | 
CC[C@H](C)[C@@H]1NC(=O)[C@H](Cc2ccc(OC)cc2)NC(=O)[C@H](Cc2ccc(O)cc2)NC(=O)[C@H](CC(N)=O)NC(=O)[C@H](Cc2c[nH]c3ccccc23)N(C)C(=O)[C@H](C(C)C)NC(=O)[C@H](Cc2cccc(Cl)c2)N(C)C(=O)[C@H](C(C)C)NC(=O)[C@H](C)NC(=O)CSC[C@@H](C(=O)NCCOCCOCCOCCOCCC(N)=O)NC(=O)[C@H](Cc2ccc(O)cc2)N(C)C(=O)[C@H](Cc2ccccc2)NC(=O)[C@@H](CCCNC(=N)N)NC(=O)[C@H](CCCNC(=N)N)NC(=O)[C@H]([C@@H](C)CC)NC1=O [compound 400] |  | 1 to 100
CC[C@H](C)[C@@H]1NC(=O)[C@H](Cc2ccc(OC)cc2)NC(=O)[C@H](Cc2ccc(O)cc2)NC(=O)[C@H](CC(N)=O)NC(=O)[C@H](Cc2c[nH]c3ccccc23)N(C)C(=O)[C@H](C(C)C)NC(=O)[C@H](Cc2cccc(Cl)c2)N(C)C(=O)[C@H](C(C)C)NC(=O)[C@H](C)NC(=O)CSC[C@@H](C(=O)NCC(=O)NCC(=O)NCC(=O)NCC(=O)N[C@@H](CO)C(=O)N[C@@H](CO)C(=O)N[C@@H](CS)C(N)=O)NC(=O)[C@H](Cc2ccc(O)cc2)N(C)C(=O)[C@H](Cc2ccccc2)NC(=O)[C@@H](CCCNC(=N)N)NC(=O)[C@H](CCCNC(=N)N)NC(=O)[C@H]([C@@H](C)CC)NC1=O [compound 401] | 1 to 100 | 
CC[C@H](C)[C@@H]1NC(=O)[C@H](Cc2ccc(OC)cc2)NC(=O)[C@H](Cc2ccc(O)cc2)NC(=O)[C@H](CC(N)=O)NC(=O)[C@H](Cc2c[nH]c3ccccc23)N(C)C(=O)[C@H](C(C)C)NC(=O)[C@H](Cc2cccc(Cl)c2)N(C)C(=O)[C@H](C(C)C)NC(=O)[C@H](C)NC(=O)CSC[C@@H](C(=O)N[C@H](CCC(=O)O)C(=O)NCC(=O)NCC(=O)NCC(=O)N[C@@H](CO)C(=O)N[C@@H](CO)C(=O)N[C@@H](CS)C(N)=O)NC(=O)[C@H](Cc2ccc(O)cc2)N(C)C(=O)[C@H](Cc2ccccc2)NC(=O)[C@@H](CCCNC(=N)N)NC(=O)[C@H](CCCNC(=N)N)NC(=O)[C@H]([C@@H](C)CC)NC1=O [compound 402] ({CH2CO}-AV[NMePhe(3-Cl)]V[NMeW]NYY(Me)IIR[dR]F[NMeY]C[dE]GGGSSC-NH2; thioether N-15) |  | 1 to 100
CC[C@H](C)[C@@H]1NC(=O)[C@H](Cc2ccc(OC)cc2)NC(=O)[C@H](Cc2ccc(O)cc2)NC(=O)[C@H](CC(N)=O)NC(=O)[C@H](Cc2c[nH]c3ccccc23)N(C)C(=O)[C@H](C(C)C)NC(=O)[C@H](Cc2cccc(Cl)c2)N(C)C(=O)[C@H](C(C)C)NC(=O)[C@H](C)NC(=O)CSC[C@@H](C(=O)NCC(=O)N[C@H](CCC(=O)O)C(=O)NCC(=O)N[C@H](CCC(=O)O)C(=O)N[C@@H](CO)C(=O)N[C@@H](CO)C(=O)N[C@@H](CS)C(N)=O)NC(=O)[C@H](Cc2ccc(O)cc2)N(C)C(=O)[C@H](Cc2ccccc2)NC(=O)[C@@H](CCCNC(=N)N)NC(=O)[C@H](CCCNC(=N)N)NC(=O)[C@H]([C@@H](C)CC)NC1=O [compound 403] |  | 1 to 100
CC[C@H](C)[C@@H]1NC(=O)[C@H](Cc2ccc(OC)cc2)NC(=O)[C@H](Cc2ccc(O)cc2)NC(=O)[C@H](CC(N)=O)NC(=O)[C@H](Cc2c[nH]c3ccccc23)N(C)C(=O)[C@H](C(C)C)NC(=O)[C@H](Cc2cccc(Cl)c2)N(C)C(=O)[C@H](C(C)C)NC(=O)[C@H](C)NC(=O)CSC[C@@H](C(=O)NCC(=O)N[C@H](CCC(=O)O)C(=O)NCC(=O)N[C@H](CCCCN)C(=O)N[C@@H](CO)C(=O)N[C@@H](CO)C(=O)N[C@@H](CS)C(N)=O)NC(=O)[C@H](Cc2ccc(O)cc2)N(C)C(=O)[C@H](Cc2ccccc2)NC(=O)[C@@H](CCCNC(=N)N)NC(=O)[C@H](CCCNC(=N)N)NC(=O)[C@H]([C@@H](C)CC)NC1=O [compound 404] ({CH2CO}-AV[NMePhe(3-Cl)]V[NMeW]NYY(Me)IIR[dR]F[NMeY]CG[dE]G[dK]SSC-NH2; thioether N-15) |  | 1 to 100
CC[C@H](C)[C@@H]1NC(=O)[C@H](Cc2ccc(OC)cc2)NC(=O)[C@H](Cc2ccc(O)cc2)NC(=O)[C@H](CC(N)=O)NC(=O)[C@H](Cc2c[nH]c3ccccc23)N(C)C(=O)[C@H](C(C)C)NC(=O)[C@H](Cc2cccc(Cl)c2)N(C)C(=O)[C@H](C(C)C)NC(=O)[C@H](C)NC(=O)CSC[C@@H](C(=O)NCC(=O)N[C@@H](CCCCN=[N+]=[N-])C(N)=O)NC(=O)[C@H](Cc2ccc(O)cc2)N(C)C(=O)[C@H](Cc2ccccc2)NC(=O)[C@@H](CCCNC(=N)N)NC(=O)[C@H](CCCNC(=N)N)NC(=O)[C@H]([C@@H](C)CC)NC1=O [compound 405] ({CH2CO}-AV[NMePhe(3-Cl)]V[NMeW]NYY(Me)IIR[dR]F[NMeY]CG[Lys(N3)]-NH2; thioether N-15) |  | 1 to 100
CC[C@H](C)[C@@H]1NC(=O)[C@H](Cc2ccc(OC)cc2)NC(=O)[C@H](Cc2ccc(O)cc2)NC(=O)[C@H](CC(N)=O)NC(=O)[C@H](Cc2c[nH]c3ccccc23)N(C)C(=O)[C@H](C(C)C)NC(=O)[C@H](Cc2cccc(Cl)c2)N(C)C(=O)[C@H](C(C)C)NC(=O)[C@H](C)NC(=O)CSC[C@@H](C(=O)NCC(=O)NCC(=O)N[C@@H](CO)C(=O)NCC(=O)N[C@@H](CO)C(=O)NCC(=O)N[C@@H](CCCCN=[N+]=[N-])C(N)=O)NC(=O)[C@H](Cc2ccc(O)cc2)N(C)C(=O)[C@H](Cc2ccccc2)NC(=O)[C@@H](CCCCN)NC(=O)[C@H](CCCNC(=N)N)NC(=O)[C@H]([C@@H](C)CC)NC1=O [compound 406] ({CH2CO}-AV[NMePhe(3-Cl)]V[NMeW]NYY(Me)IIR[dK]F[NMeY]CGGSGSG[Lys(N3)]-NH2; thioether N-15) |  | 1 to 100
CC[C@H](C)[C@@H]1NC(=O)[C@H](Cc2ccc(OC)cc2)NC(=O)[C@H](Cc2ccc(O)cc2)NC(=O)[C@H](CC(N)=O)NC(=O)[C@H](Cc2c[nH]c3ccccc23)N(C)C(=O)[C@H](C(C)C)NC(=O)[C@H](Cc2cccc(Cl)c2)N(C)C(=O)[C@H](C(C)C)NC(=O)[C@H](C)NC(=O)CSC[C@@H](C(=O)NCC(=O)NCC(=O)NCC(=O)NCC(=O)N[C@@H](CO)C(=O)N[C@@H](CO)C(=O)N[C@@H](CS)C(N)=O)NC(=O)[C@H](Cc2ccc(O)cc2)N(C)C(=O)[C@H](Cc2ccccc2)NC(=O)[C@@H](CCCCN)NC(=O)[C@H](CCCNC(=N)N)NC(=O)[C@H]([C@@H](C)CC)NC1=O [compound 407] |  | 1 to 100
CC[C@H](C)[C@@H]1NC(=O)[C@H](Cc2ccc(O)cc2)NC(=O)[C@H](Cc2ccc(O)cc2)NC(=O)[C@H](CC(N)=O)NC(=O)[C@H](Cc2c[nH]c3ccccc23)NC(=O)[C@H](C(C)C)NC(=O)[C@H](Cc2ccccc2)NC(=O)[C@H](C(C)C)NC(=O)[C@H](C)NC(=O)CCC[C@@H](C(N)=O)NC(=O)[C@H](Cc2ccc(O)cc2)N(C)C(=O)[C@H](Cc2ccc(O)cc2)NC(=O)[C@H](CCCNC(=N)N)NC(=O)[C@H](CCCNC(=N)N)NC(=O)[C@H]([C@@H](C)CC)NC1=O [compound 408] |  | 1 to 100
